The target in data set [1] is T1, STS isolated from the human placenta (Homo sapiens, UniProt P08842).
T1 construct: radioisotope enzymatic assay using STS isolated from the human placenta; from tissue; host or cells: human placenta
T1 sequence (P08842 22-583): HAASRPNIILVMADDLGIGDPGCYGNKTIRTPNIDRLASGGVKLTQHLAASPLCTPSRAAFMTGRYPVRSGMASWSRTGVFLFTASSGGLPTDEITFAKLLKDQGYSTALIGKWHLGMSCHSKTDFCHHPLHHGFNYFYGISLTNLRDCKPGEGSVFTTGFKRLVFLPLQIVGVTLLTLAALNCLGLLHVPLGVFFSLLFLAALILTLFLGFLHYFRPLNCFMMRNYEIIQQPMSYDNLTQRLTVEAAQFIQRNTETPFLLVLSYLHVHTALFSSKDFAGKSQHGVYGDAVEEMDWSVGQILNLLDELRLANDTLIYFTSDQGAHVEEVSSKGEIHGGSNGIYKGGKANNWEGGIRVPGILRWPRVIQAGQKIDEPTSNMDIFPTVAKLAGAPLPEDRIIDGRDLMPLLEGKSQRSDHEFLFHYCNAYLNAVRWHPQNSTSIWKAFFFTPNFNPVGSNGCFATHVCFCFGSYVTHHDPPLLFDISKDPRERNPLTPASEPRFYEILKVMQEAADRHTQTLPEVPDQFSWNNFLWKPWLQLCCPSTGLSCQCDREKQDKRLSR
Description: radioisotope enzymatic assay with STS isolated from human placenta and [3H]E1S. It counts as biochemical. The following applies: 0.5 μM inhibitor concentration, substrate [3H]E1S, 3 nM, triplicate; for remaining activity at 0.5 µM: read-out: residual STS activity [%].
Description: The inhibitory potency of the synthesized compounds was examined in two ways, including an enzymatic assay and the radioisotope cellular test. The enzymatic assay was performed using the STS enzyme isolated from human placenta and using radiolabeled [^3H]E1S as a substrate.
The total volume of the reaction mixture was 100 μL. […] After incubation, the reaction mixture (90 μL) was collected from each well, and the product formed by STS hydrolysis was extracted with toluene (0.5 mL). STS activity was measured using a MicroBeta radioluminometer (PerkinElmer). Enzymatic assays were carried out in triplicate.

The target in data set [2] is T2, STS in MCF-7 cells (Homo sapiens, UniProt P08842).
T2 construct: The radioisotope cellular assay was performed using the MCF-7 cell line; endogenous in cells; host or cells: MCF-7
T2 sequence (P08842 22-583): T1 sequence (P08842 22-583)
In words: radioisotope cellular assay with [3H]E1S in MCF-7 cells. The following applies: for remaining activity at 0.001 µM / remaining activity at 0.01 µM / remaining activity at 0.1 µM: MCF7, 20 h; for remaining activity at 0.001 µM: read-out: residual STS activity [%] 1 nM; for remaining activity at 0.01 µM: read-out: residual STS activity [%] 10 nM; for remaining activity at 0.1 µM: read-out: residual STS activity [%] 100 nM. It counts as cell-based.
Description: All compounds were initially tested for their in cell inhibitory action at a 100 nM concentration.
The inhibitory potency of the synthesized compounds was examined in two ways, including an enzymatic assay and the radioisotope cellular test. […] The radioisotope cellular assay was performed using the MCF-7 cell line in the presence of radiolabeled [^3H]E1S.
The evaluation of the inhibitory effect of each compound with breast cancer cells was performed using a previously described method (27) with some modifications. MCF-7 cells were maintained in Dulbecco’s modified Eagle medium supplemented with 10% fetal bovine serum and cultured in the above medium until 80% confluence. […] After incubation, the medium (0.45 mL) was collected from each well, and the product formed by STS hydrolysis was extracted with toluene (4 mL). STS activity was measured using a MicroBeta radioluminometer (PerkinElmer). Assays with MCF-7 cells were carried out in triplicate.

Data set [3] is classed as in vivo. The following applies: Table S1, MTD study, 50 mg/kg.
Description: The mice were thus weighed, and their general health was observed. […] At the end of the study, the mice were sacrificed by dislocation of the cervical vertebrae, and the internal organs were examined macroscopically.
The mice were weighed, and their general health was observed. […] At the end of the MTD study, the autopsy was performed, and the internal organs (liver, kidney, and spleen) were weighed and macroscopically assessed.
Data set [4] is described as follows: blood morphology, blood biochemistry and organ weights of mice with 67NR tumor.
Description: At the end of the study, the autopsy of the animals was performed: blood was collected for further analyses of the morphology (Table S2, Supporting Information) and biochemistry (Table S3 and Figure S6, Supporting Information) and for the determination of the plasma estradiol level using the ELISA method.
Mice were injected orthotopically (in the mammary gland fat pad) with 67NR mouse mammary tumor cells derived from in vitro culture (1.5 × 10^5 cells/0.05 mL Hanks fluid/mouse). The growth of tumors has been observed. […] Animals were observed during the next 17 days and euthanized. During observation, body weight and tumor growth were monitored three times a week. The volume of the tumors was calculated according to the following formula: TV = a^2·b/2 [mm^3], (where: a—width and b—length of the tumor). Blood, tumor tissue, and liver were harvested during autopsy for further analyses. Blood aliquots (about 500 μL) were collected in EDTA containing vials for morphology analysis (Mythic 18 analyzer, Orphee), and then, the plasma was collected (centrifuged at 2500g for 15 min at 4 °C within 1 h after collection) for biochemical parameter analysis (Cobas c111, Roche).
The test system of data set [5] is 67NR mouse mammary tumor cells. Description: antitumor activity in 67NR orthotopic mouse breast carcinoma model. In kind it is in vivo, BALB/c mice. The following applies: 50 mg/kg b.w. per os. As to the method:
The tumor volume (TV) and body weight were measured three times a week. Results for individual groups are reported in Figure S5, Supporting Information. Based on TV data, the tumor growth inhibition (TGI) was calculated for groups that received compounds and compared to that of the control group. […] The body weight of the treated animals was monitored during the study, and the body weight change (BWC) index was calculated (Figure 4). […] Body weight loss was observed between D2 and D11 and reached 4.5% at most.
The growth of tumors has been observed.

[6] abbreviates: MCF-7 cells, 1 nM inhibitor, substrate [3H]E1S, 3 nM, triplicate.
[7] abbreviates: MCF-7 cells, 10 nM inhibitor, substrate [3H]E1S, 3 nM, triplicate.
Where [8] appears, read: MCF-7 cells, 100 nM inhibitor, substrate [3H]E1S, 3 nM, triplicate.
[9] abbreviates: Table S2, mice with 67NR tumor, 50 mg/kg.
[10] abbreviates: Table S3, plasma, mice with 67NR tumor, 50 mg/kg per os, N=9.

Like-named read-outs stand apart in the source and are kept apart here.

Take `NS(=O)(=O)Oc1ccc(-c2cn(-c3cccc(Br)c3)nn2)cc1` [4c, 4-(1-(3-Bromophenyl)-1H-1,2,3-triazol-4-yl)phenyl Sulfamate]: the melting point was 212 to 213 °C (dec.). Further, in data set [1], the remaining activity at 0.5 µM stood at 24.1 ± 1.2%. Also, in data set [2] (setting [6]), the remaining activity at 0.001 µM stood at 79.4 ± 4.76%. Further, the remaining activity at 0.01 µM in data set [2] (setting [7]) was 39.9 ± 2.19%. In addition, the remaining activity at 0.1 µM in data set [2] (setting [8]) is 2.1 ± 0.07%.

For `NS(=O)(=O)Oc1ccc(-c2cn(-c3cccc(I)c3)nn2)cc1` [4d, 4-(1-(3-Iodophenyl)-1H-1,2,3-triazol-4-yl)phenyl Sulfamate], the melting point was 228 to 229 °C (dec.). In data set [1], the “residual STS activity [%]” value came out at 13.23 ± 0.66% and the remaining activity at 0.5 µM was 13.2%. In addition, the remaining activity at 0.001 µM in data set [2] (setting [6]) came out at 67.5 ± 3.71%. The remaining activity at 0.01 µM in data set [2] (setting [7]) was found to be 31.8 ± 1.59%. Further, the remaining activity at 0.1 µM in data set [2] (setting [8]) came to 2 ± 0.11%.

Regarding `Cc1cccc(-n2cc(-c3ccc(OS(N)(=O)=O)cc3)nn2)c1` [4e, 4-(1-(3-Methylphenyl)-1H-1,2,3-triazol-4-yl)phenyl Sulfamate], the melting point is 212 to 213 °C (dec.). Also, in data set [1], the remaining activity at 0.5 µM came to 34.2 ± 1.71%. Further, the remaining activity at 0.1 µM in data set [2] (setting [8]) is 3.1 ± 0.12%.

Take `Cc1cc(C)cc(-n2cc(-c3ccc(OS(N)(=O)=O)cc3)nn2)c1` [4f, 4-(1-(3,5-Dimethylphenyl)-1H-1,2,3-triazol-4-yl)phenyl Sulfamate]: the remaining activity at 0.5 µM in data set [1] was 52.5 ± 2.62%. Also, in data set [2] (setting [8]), the remaining activity at 0.1 µM worked out at 10.2 ± 0.61%.

As for `COc1cccc(-n2cc(-c3ccc(OS(N)(=O)=O)cc3)nn2)c1` [4g, 4-(1-(3-Methoxyphenyl)-1H-1,2,3-triazol-4-yl)phenyl Sulfamate], the melting point is 210 to 212 °C (dec.). Further, the remaining activity at 0.5 µM in data set [1] was 43.4 ± 2.17%. Besides, in data set [2] (setting [8]), the remaining activity at 0.1 µM came to 6.8 ± 0.24%.

Take `COc1cc(OC)cc(-n2cc(-c3ccc(OS(N)(=O)=O)cc3)nn2)c1` [4h, 4-(1-(3,5-Dimethoxyphenyl)-1H-1,2,3-triazol-4-yl)phenyl Sulfamate]: the melting point was 225 to 227 °C (dec.). For the same compound, in data set [1], the remaining activity at 0.5 µM came to 55.1 ± 2.76%. Besides, the remaining activity at 0.1 µM in data set [2] (setting [8]) came out at 34.3 ± 1.88%.

As to `CCc1cccc(-n2cc(-c3ccc(OS(N)(=O)=O)cc3)nn2)c1` [4i, 4-(1-(3-Ethylphenyl)-1H-1,2,3-triazol-4-yl)phenyl Sulfamate], the melting point is 223 to 225 °C (dec.). Moreover, the remaining activity at 0.5 µM in data set [1] stood at 14.5 ± 0.73%. The remaining activity at 0.1 µM in data set [2] (setting [8]) amounted to 2.6 ± 0.08%.

Turning to `CC(C)c1cccc(-n2cc(-c3ccc(OS(N)(=O)=O)cc3)nn2)c1` [4j, 4-(1-(3-Isopropylphenyl)-1H-1,2,3-triazol-4-yl)phenyl Sulfamate], the melting point is 202 to 204 °C (dec.). Moreover, the remaining activity at 0.5 µM in data set [1] came out at 18.1 ± 0.9%. Further, the remaining activity at 0.01 µM in data set [2] (setting [7]) came out at 73.4%. The remaining activity at 0.1 µM in data set [2] (setting [8]) is 2.4 ± 0.12%.

As for `NS(=O)(=O)Oc1ccc(-c2cn(-c3cccc([N+](=O)[O-])c3)nn2)cc1` [4k, 4-(1-(3-Nitrophenyl)-1H-1,2,3-triazol-4-yl)phenyl Sulfamate], the melting point was 225 to 226 °C (dec.). For the same compound, the remaining activity at 0.5 µM in data set [1] turned out to be 28.9 ± 1.44%. The remaining activity at 0.1 µM in data set [2] (setting [8]) worked out at 5.9 ± 0.32%.

`NS(=O)(=O)Oc1ccc(-c2cn(-c3cc(Br)cc(Br)c3)nn2)cc1` [4l, 4-(1-(3,5-Dibromophenyl)-1H-1,2,3-triazol-4-yl)phenyl Sulfamate]: the melting point was 228 to 229 °C (dec.). Further, in data set [1], the remaining activity at 0.5 µM is 28.9 ± 1.44%. Further, the remaining activity at 0.1 µM in data set [2] (setting [8]) amounted to 8.3 ± 0.4%.

With `NS(=O)(=O)Oc1ccc(-c2cn(-c3cc(I)cc(I)c3)nn2)cc1` [4m, 4-(1-(3,5-Diiodophenyl)-1H-1,2,3-triazol-4-yl)phenyl Sulfamate], the melting point is 213 to 216 °C (dec.). Moreover, in data set [1], the “residual STS activity [%]” value came to 11.78 ± 0.59% and the remaining activity at 0.5 µM stood at 11.8%. Besides, the remaining activity at 0.1 µM in data set [2] (setting [8]) was determined as 18.7%.

Turning to `NS(=O)(=O)Oc1ccc(-c2cn(-c3ccc(F)cc3)nn2)cc1` [5a], the remaining activity at 0.01 µM in data set [2] (setting [7]) came to 60.2 ± 2.7%. Moreover, in data set [2] (setting [8]), the remaining activity at 0.1 µM came to 1.5 ± 0.05%.

Turning to `NS(=O)(=O)Oc1ccc(-c2cn(-c3ccccc3)nn2)cc1` [5b], in data set [2] (setting [7]), the remaining activity at 0.01 µM came out at 46.6 ± 1.63%. Besides, the remaining activity at 0.1 µM in data set [2] (setting [8]) amounted to 1.5 ± 0.05%.

For the compound `NS(=O)(=O)Oc1ccc(-c2cn(-c3ccccc3C(F)(F)F)nn2)cc1` [5c], the remaining activity at 0.1 µM in data set [2] (setting [8]) worked out at 5.5 ± 0.3%.

As for `NS(=O)(=O)Oc1ccc(-c2cn(-c3cc(C(F)(F)F)cc(C(F)(F)F)c3)nn2)cc1` [5d], the remaining activity at 0.1 µM in data set [2] (setting [8]) was 14.7 ± 0.88%.

Turning to `NS(=O)(=O)Oc1ccc(-c2cn(-c3ccc(F)c(F)c3F)nn2)cc1` [5e], in data set [3], the GRAN was 11,1±1,9%, the HCT is given as 42,3±1,3%, the HGB is 15,7±0,5 g/dL and the LIMF was 85,6±2,6%. Moreover, in data set [3], the MCH is on record as 17,1±0,2 pg, the MCHC is given as 37,2±0,7 g/dL, the MCV is recorded as 46±0,5 fL and the MON is 3,3±1%. For the same compound, in data set [3], the PLT is given as 511±30 10x3/uL, the RBC is reported as 9,2±0,4 10x6/uL, the RDW is reported as 17,6±0,7% and the WBC was 4,0±0,4 10x3/uL. Besides, in data set [2], the remaining activity at 0.001 µM came out at 38.9%, the remaining activity at 0.01 µM came out at 24.2 ± 1.45% and the remaining activity at 0.1 µM stood at 1 ± 0.04%. Besides, the IC50 in data set [2] (MCF-7 cells, substrate [3H]E1S, 3 nM) was found to be 2.95 ± 0.13 nM. Further, in data set [4] (setting [9]), the HCT is recorded as 34,6±1,6%, the HGB was 13,4±0,6 g/dL, the MCH is 18,2±0,4 pg and the MCHC was 38,6±0,5 g/dL. In addition, in data set [4] (setting [9]), the MCV is 47±1,2 fL, the MPV is reported as 4,9±0,1 fL, the PCT is reported as 0,280±0,04% and the PDW is listed as 25,6±3,8 fL. Also, in data set [4] (setting [9]), the RBC was 7,4±0,4 x106/uL, the RDW was 19,2±1,2% and the WBC was 6,1±2,1 x103/uL. Further, in data set [4] (setting [10]), the ALT is reported as 31,1±10,7 U/L, the AST is 97,4±24,9 U/L, the creatinine is on record as 5,33±1,21 umol/L and the urea is 7,65±0,54 mmol/L. The “body weight of treated tumor-bearing mice (observation)” value in data set [5] is “An increase in body weight was observed”. Also, the “tumor growth inhibition (TGI)” value in data set [5] (5 days a week, 67NR tumor, N = 9, vs control group) is on record as “did not show any significant effect”. Also, in data set [5] (nine mice/group), the “mice responded to the treatment” value is 6 mice poorly responded to the treatment, the “mice with much larger tumor than the mean control volume” value was 2 mice and the “mice with tumor volume reduced by approx. 50% compared to the TV control” value is on record as 1 mice.

On to `NS(=O)(=O)Oc1ccc(-c2cn(-c3ccc(F)c(F)c3)nn2)cc1` [5f], for which, in data set [2] (setting [8]), the remaining activity at 0.1 µM came out at 3 ± 0.14%.

In the case of `NS(=O)(=O)Oc1ccc(-c2cn(-c3ccc(F)cc3C(F)(F)F)nn2)cc1` [5h], the remaining activity at 0.01 µM in data set [2] (setting [7]) was determined as 48.2 ± 3.37%.

For the compound `NS(=O)(=O)Oc1ccc(-c2cn(-c3ccc(OC(F)(F)F)cc3)nn2)cc1` [5i], in data set [2] (setting [6]), the remaining activity at 0.001 µM came out at 71.8 ± 4.67%. Moreover, in data set [2] (setting [7]), the remaining activity at 0.01 µM worked out at 9.5 ± 0.48%. For the same compound, in data set [2] (setting [8]), the remaining activity at 0.1 µM was 1% and the “residual STS activity [%] 100 nM” value is recorded as 1.0%.

For `NS(=O)(=O)Oc1ccc(-c2cn(-c3ccc(C(F)(F)F)cc3)nn2)cc1` [5j], the remaining activity at 0.1 µM in data set [2] (setting [8]) was below 5%.

On to `NS(=O)(=O)Oc1ccc(-c2cn(-c3ccccc3OC(F)(F)F)nn2)cc1` [5k], for which the remaining activity at 0.1 µM in data set [2] (setting [8]) is 15.5 ± 0.93%.

On to `NS(=O)(=O)Oc1ccc(-c2cn(-c3cccc(C(F)(F)F)c3)nn2)cc1` [5m], for which, in data set [2] (setting [7]), the remaining activity at 0.01 µM is 59.9 ± 3.29%.

Regarding `Cc1cc(=O)oc2cc(OS(N)(=O)=O)ccc12` [COUMATE, reference compound], in data set [2], the remaining activity at 0.1 µM was found to be 51.8%.

In general, melting point refers to the temperature of the solid-liquid transition. What is called IC50 is the midpoint of a concentration-inhibition curve. Read a high IC50 as a need for much substance.
